Results published in patent US5659049A, “Antioxidant, antiphospholipase derivatives of ricinoleic acid” (Virginia Commonwealth University, priority 1995, dated 1997).
Where a name gives a salt, the structure may show the parent alone.

Tests used:
[1] = Oxidation of arachidonic acid (decreased turbidity and hydroperoxide formation)
PLA2 = assay: Anti-PLA2 activity (comparative Table 6); type: biochemical; conditions: nd = not detectable at ≤ 500 uM; read-out: IC-50 Anti-PLA2 Activity
[2] = Anti-oxidant activity (comparative Table 6); conditions: read-out: IC-50 Anti-Oxidant Activity; nd = not detectable at ≤ 500 uM
[3] = Auto-oxidation of phosphatidylethanolamine; type: biochemical; conditions: for % Oxidized PE / % Unoxidized PE: 24 hrs; for % Oxidized PE: PE alone 39.3%; for % Unoxidized PE: PE alone 51.1%
human synovial PLA2 = target: T1, human synovial PLA2 (Homo sapiens, UniProt P14555); assay: Inhibition of human synovial PLA2 activity in vitro; type: biochemical; conditions: for IC50: each compound prepared as a sodium salt, FIG. 9, approximately
T1 construct: from tissue; host or cells: human synovial (fluid)
T1 sequence (P14555 21-144): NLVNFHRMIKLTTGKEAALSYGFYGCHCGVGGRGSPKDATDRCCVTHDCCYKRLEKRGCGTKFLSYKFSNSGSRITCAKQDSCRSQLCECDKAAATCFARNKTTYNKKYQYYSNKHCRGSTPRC
Description: FIG. 9 is a graph illustrating the ability of the compounds of the invention to inhibit PLA2 activity in vitro.

[4] = target: T2, human synovial fluid PLA2 (SF-PLA2) (Homo sapiens, UniProt P14555); assay: Human SF-PLA2 induced mouse paw edema, oral administration; type: in vivo; conditions: for % Increase Weight: control 61%
T2 construct: intra-articular injection of human synovial fluid PLA2 (SF-PLA2) into the mouse paw; from tissue; host or cells: human synovial fluid
T2 sequence (P14555 21-144): T1 sequence (P14555 21-144)
Description: The mouse paw edema is inhibited in dose related fashion by increasing concentrations of RISE-1 given orally 1.0 hours before induction of the edema by SF-PLA2.

platelet PLA2 = target: T3, platelet PLA2 (Homo sapiens, UniProt P14555); assay: In vitro inhibition of PLA2 derived from platelets (FIG. 8); type: biochemical
T3 construct: from tissue; host or cells: platelets
T3 sequence (P14555 21-144): T1 sequence (P14555 21-144)

[5] = tested on: human polymorphonuclear leukocytes (PMNs); assay: Inhibition of arachidonic acid release from prelabelled human PMNs; conditions: Leukocyte, read-out: % Inhibition of arachidonic acid release
sperm PLA2 = assay: In vitro inhibition of PLA2 derived from sperm (FIG. 8); type: biochemical, human
human plasma PLA2 = target: T4, human plasma PLA2 (Homo sapiens, UniProt P14555); assay: In vitro inhibition of PLA2 derived from plasma (FIG. 8); type: biochemical
T4 construct: from tissue; host or cells: human plasma
T4 sequence (P14555 21-144): T1 sequence (P14555 21-144)

[6] = tested on: rat adjuvant induced arthritis; assay: Rat adjuvant induced arthritis; conditions: in vivo
[7] = RISE-1 10 mg/kg orally 1.0 hours before SF-PLA2
[8] = RISE-1 30 mg/kg orally 1.0 hours before SF-PLA2
[9] = RISE-1 100 mg/kg orally 1.0 hours before SF-PLA2

Compound: Cc1cc(C(C)(C)C)c(O)c(C(C)(C)C)c1 [BHT, betahydroxytoluene, reference compound]
- Turbidity (430 nm) ([1]; 100 uM, time 0 hrs, control 1.38): 1.31
- Hydroperoxide ([1]; 100 uM, time 0 hrs, control 100): 119 nmols
- Hydroperoxide ([1]; 100 uM, time 24 hrs, control 378): 112 nmols
- Turbidity (430 nm) ([1]; 100 uM, time 24 hrs, control .387): 1.283

Compound: CCCCCCC(C/C=C\CCCCCCCC(=O)O)OC(=O)/C=C/C(=O)O (centres unmarked) [PX-2]
- IC50 (PLA2): > 500 µM
- IC50 [2]: > 500 µM

Compound: CCCCCCCC/C=C\CCCCCCCC(=O)OC(C/C=C\CCCCCCCC(=O)O)CCCCCC (centres unmarked) [PX-3, Ricinoleic Acid Oleic Acid Ester]
- Percent Protection ([3]; 25 μM): 16%
- Percent Protection ([3]; 50 μM): 16%
- Percent Protection ([3]; 100 μM): 13%
- Percent Protection ([3]; 250 μM): 22%
- Percent Protection ([3]; 500 μM): 27%
- IC50 (human synovial PLA2): 5 to 10 µM
- IC50 (PLA2): 7.2 µM
- IC50 [2]: > 500 µM

Compound: CCCCC/C=C\C/C=C\CCCCCCCC(=O)OC(C/C=C\CCCCCCCC(=O)O)CCCCCC (centres unmarked) [PX-4, Ricinoleic Acid Linoleic Acid Ester]
- Percent Protection ([3]; 25 μM): 13%
- Percent Protection ([3]; 50 μM): 22%
- Percent Protection ([3]; 100 μM): 38%
- Percent Protection ([3]; 250 μM): 53%
- Percent Protection ([3]; 500 μM): 73%
- IC50 (human synovial PLA2): 5 to 10 µM
- IC50 (PLA2): 10 µM
- IC50 [2]: 210 µM

Compound: CCCCCCCC/C=C\CCCCCCCCOC(=O)CCCCCCC/C=C\CC(CCCCCC)OC(=O)/C=C/C(=O)O (centres unmarked) [PX-5, Oleyl Alcohol-Ricinoleate-Fumaric Acid Diester]
- Percent Protection ([3]; 25 μM): 28%
- Percent Protection ([3]; 50 μM): 24%
- Percent Protection ([3]; 100 μM): 31%
- Percent Protection ([3]; 250 μM): 47%
- Percent Protection ([3]; 500 μM): 62%
- IC50 (human synovial PLA2): 5 to 10 µM
- IC50 (PLA2): 5 µM
- IC50 [2]: 300 µM

Compound: CCCCCCC(O)C/C=C\CCCCCCCC(=O)OC(C/C=C\CCCCCCCC(=O)O)CCCCCC (centres unmarked) [PX-6]
- IC50 (PLA2): 4.5 µM
- IC50 [2]: 300 µM

Compound: CCCCCCC(C/C=C\CCCCCCCC(=O)O)OC(=O)/C=C/C(=O)OC(C/C=C\CCCCCCCC(=O)O)CCCCCC (centres unmarked) [PX-7, Diricinoleic Acid Fumarate Diester]
- IC50 (PLA2): 7 µM
- IC50 [2]: 130 µM

Compound: CCCCCCCC/C=C\CCCCCCCCOC(=O)CCCCCCC/C=C\CC(CCCCCC)OC(=O)/C=C\C(=O)O (centres unmarked) [PX-8]
- IC50 (PLA2): 3.5 µM
- IC50 [2]: 140 µM

Compound: CCCCCCCC/C=C\CCCCCCCC(=O)OCC(COC(=O)CCCCCCC/C=C\CCCCCCCC)(COC(=O)CCCCCCC/C=C\CCCCCCCC)NCCS(=O)(=O)O [PX-13, TES Triolears]
- ED50 ([4]; mouse, po, administered single dose orally, read-out: IC50 vs PLA2 induced mouse paw edema): ~15 mg/kg

Compound: CCCCC/C=C\C/C=C\CCCCCCCC(=O)OCC(N)(COC(=O)CCCCCCC/C=C\C/C=C\CCCCC)COC(=O)CCCCCCC/C=C\C/C=C\CCCCC [PX-14]
- IC50 (PLA2): 4.4 µM
- IC50 [2]: 70 µM

Compound: CCCCC/C=C\C/C=C\CCCCCCCC(=O)OCC1(COC(=O)CCCCCCC/C=C\C/C=C\CCCCC)COC(=O)CN1C(=O)CCCCCCC/C=C\C/C=C\CCCCC [PX-15]
- IC50 [2]: > 500 µM

Compound: CCCCCCC(C/C=C\CCCCCCCC(=O)O)OC(=O)CCCCCCCCC(=O)O (centres unmarked) [RISE-1, Ricinoleic Acid Sebacyl Ester]
- % Oxidized PE ([3]; 25 uM): 42.0%
- % Unoxidized PE ([3]; 25 uM): 50.6%
- % Oxidized PE ([3]; 100 uM): 42.4%
- % Unoxidized PE ([3]; 100 uM): 49.6%
- Inhibition of PLA2 derived from platelets (platelet PLA2): dose related, selective in vitro inhibition
- % Protection [4, 7]: 23%
- % Increase Weight [4, 7]: 47%
- % Protection [4, 8]: 38%
- % Increase Weight [4, 8]: 38%
- % Protection [4, 9]: 49%
- % Increase Weight [4, 9]: 31%
- inhibition at 25 µM [5]: 0%
- inhibition at 50 µM [5]: 19%
- inhibition at 75 µM [5]: 38%
- inhibition at 100 µM [5]: 72%
- Inhibition of PLA2 derived from sperm (sperm PLA2): dose related, selective in vitro inhibition
- Inhibition of PLA2 derived from human synovial fluid (human synovial PLA2; FIG. 8): dose related, selective in vitro inhibition
- IC50 (human synovial PLA2): 5 to 10 µM
- Inhibition of PLA2 derived from plasma (human plasma PLA2): dose related, selective in vitro inhibition
- Inhibition of rat adjuvant induced arthritis [6]: does not inhibit
- Turbidity (430 nm) ([1]; 25 uM, time 0 hrs, control 1.38): 1.33
- Hydroperoxide ([1]; 25 uM, time 0 hrs, control 100): 109 nmols
- Hydroperoxide ([1]; 25 uM, time 24 hrs, control 378): 437 nmols
- Turbidity (430 nm) ([1]; 25 uM, time 24 hrs, control .387): .524
- Turbidity (430 nm) ([1]; 50 uM, time 0 hrs, control 1.38): 1.47
- Hydroperoxide ([1]; 50 uM, time 0 hrs, control 100): 109 nmols
- Hydroperoxide ([1]; 50 uM, time 24 hrs, control 378): 428 nmols
- Turbidity (430 nm) ([1]; 50 uM, time 24 hrs, control .387): .348
